Measured values reported in US9738902B2, “Modified PYR/PYL receptors activated by ligands” (priority 2013, dated 2017).

Key:
[1] = target: T1, GST-HAB1 with 6×-His-PYR1^MANDI (Arabidopsis thaliana, UniProt O49686, F108A/F159L/K59R/S122G/V81I/Y58H); test: PP2C enzyme inhibition assay (4-methylumbelliferyl-phosphate); assay type: biochemical; conditions: PYR1^MANDI with GST-HAB1, GST-ABI1, GST-ABI2
T1 construct: made in house; host or cells: E. coli BL21[DE3]pLysS (receptor)
Protocol: We next characterized the effects of recombinant PYR1^MANDI on PP2C activity using the fluorogenic substrate 4-methylumbelliferyl-phosphate. Recombinant receptor and PP2C proteins were prepared as described above and used to examine PP2C inactivation in response to mandipropamid or ABA. Enzyme inhibition assays were conducted using the following assay conditions: 100 nM 6×-His-PYR1^MANDI, 50 nM GST-PP2C, 100 mM Tris-OAc (pH 7.9), 100 mM NaCl, 1 mM MnCl2, 1% β-mercaptoethanol. […] The three ABA-regulated clade A PP2Cs, GST-HAB1, GST-ABI1 and GST-ABI2 were each tested under the same enzyme conditions in separate reactions. The assays were conducted at a variety of mandipropamid or ABA concentrations so that IC50 values could be determined. […] Thus, the PYR1^MANDI receptor is highly sensitive to activation by mandipropamid and interacts with multiple clade A PP2Cs in response to mandipropamid. This high level of sensitivity is consistent with the yeast two hybrid results described above in which a detectable interaction between PYR1^MANDI and HAB1 could be observed at concentrations as low as 2 nM (see Table 1). We note that the yeast two hybrid reporter systems requires only a small percentage of PYR1^MANDI receptors to bind HAB1 for an interaction signal and is therefore a potentially more sensitive indicator than in vitro assays. […] Thus these in vitro assays confirm that PYR1^MANDI is selectively activated by mandipropamid.

[2] = tested on: PYR1-OX; test: qRT-PCR of ABA-regulated genes RD29B and RAB18; assay type: in vivo, Arabidopsis; conditions: 50 μM ABA, 8 hours
Protocol: One of ABA's major effects is to regulate gene expression. We therefore examined the effects of ABA and mandipropamid on gene expression in wild type, PYR-OX, MDP1 and MPD2 transgenic plants. Seed of the wild type or transgenic lines were surface sterilized, stratified for 4 days at 4° C. and then grown for 10 days at room temperature under continuous illumination in a liquid culture consisting of 0.5×MS salts and 0.5% sucrose and grown with continuous shaking to provide aeration. After 10 days, the culture solutions were adjusted to contain 50 μM ABA, 2 μM mandipropamid, or a mock treatment. After 8 hours exposure to the test compounds RNA was isolated using RNAEasy™ Plant RNA isolation kit (Qiagen, USA) and treated with DNAse. The purified RNA was utilized in qRT-PCR reactions using primers for the ABA-regulated genes RD29B or RAB18. Biological triplicate and triple technical replicate measurements were conducted. To perform qRT-PCR analyses, cDNA was generated from 5 μg of total RNA using superscript reverse transcriptase III (Invitrogen, USA), in reaction mixture containing a oligo-dT20 (SEQ ID NO:110) and a ribosomal RNA primer. Real-time quantitative PCR analysis was performed by ΔCt method of relative quantification. PCR mixtures contained cDNA, Maxima® SYBR green/Fluorescein qPCR master mix (Fermentas, USA) and 330 nM of each gene-specific primer. RT-PCRs were conducted using a BioRad CFX96 Real-Time PCR System and the data were processed using the BioRad CFX Manager software (BioRad, USA). PCRs were performed under the following cycling conditions: 3 min at 95° C., followed by 40 cycles of 10 sec at 95° C., 10 sec at 55° C. and 30 sec at 72° C. in 96-well optical reaction plates (BioRad, USA). The specificity of amplicons was verified by melting curve (disassociation) analysis (60-95° C.) after 40 cycles. Input cDNA was normalized using an internal control gene, PEX4 (AT5G25760).

[3] = target: T2, PYR1 K59R S92W (Arabidopsis thaliana, UniProt O49686, K59R/S92W); test: Y2H Pocket Library Screen (HAB1, X-gal); assay type: cell-based
T2 construct: expressed in transfected cells; host or cells: S. cerevisiae Y190 yeast two-hybrid reporter strain
T2 sequence (Q9CAJ0 23-511): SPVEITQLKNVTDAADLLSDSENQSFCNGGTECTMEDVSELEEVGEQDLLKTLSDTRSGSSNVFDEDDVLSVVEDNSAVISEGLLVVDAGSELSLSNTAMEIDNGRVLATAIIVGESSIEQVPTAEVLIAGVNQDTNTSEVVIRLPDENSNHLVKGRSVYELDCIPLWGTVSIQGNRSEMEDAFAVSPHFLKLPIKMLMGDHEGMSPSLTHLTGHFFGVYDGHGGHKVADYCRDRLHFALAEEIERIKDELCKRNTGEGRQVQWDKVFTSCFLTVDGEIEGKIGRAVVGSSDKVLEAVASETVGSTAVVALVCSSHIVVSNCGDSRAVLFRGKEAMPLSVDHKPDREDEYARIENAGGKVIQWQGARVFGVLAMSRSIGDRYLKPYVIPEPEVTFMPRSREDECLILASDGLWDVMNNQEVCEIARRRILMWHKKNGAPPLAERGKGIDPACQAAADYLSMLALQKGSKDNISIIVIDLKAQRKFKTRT
T2 sequence (O49686 whole entry K59R/S92W): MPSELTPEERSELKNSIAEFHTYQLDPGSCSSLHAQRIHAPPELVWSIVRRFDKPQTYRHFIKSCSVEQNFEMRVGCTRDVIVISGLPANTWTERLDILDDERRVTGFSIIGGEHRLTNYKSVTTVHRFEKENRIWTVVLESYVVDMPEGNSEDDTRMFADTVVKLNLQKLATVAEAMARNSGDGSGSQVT
Protocol: (§1) The set of 475 mutant plasmids were individually transformed into the Y190 yeast two hybrid reporter strain co-transformed with pACT-HAB1, as previously described (Park et al., 2009). The yeast strains generated were arrayed into 96-well plates yielding what we refer to as the “pocket library”. The pocket library strains were spotted onto agar plates containing selective synthetic dextrose (minus Leu & Trp) medium that was supplemented with a single test compound at 100 μM. The pocket library strains were separately tested for responsiveness to the following compounds: dichlobenil, benzothiadiazole, mandipropamid, fludioxonil, and benoxacor. After incubating test plates at 30° C. for two days, colonies were chloroform lysed and stained to reveal β-galactosidase expression levels, using previously described methods (Park et al., 2009). Mutants displaying responsiveness to the test compound, if present, were identified by virtue of X-gal staining and then subjected to subsequent optimization efforts. Using this approach we identified mutations that conferred detectable sensitivity to the compounds tested (see entries labeled “Pocket Library Screens” in Table 1).

[4] = target: T3, PYR1 K59R S92I (Arabidopsis thaliana, UniProt O49686, K59R/S92I); test: Y2H Pocket Library Screen (HAB1, X-gal); assay type: cell-based
T3 construct: expressed in transfected cells; host or cells: S. cerevisiae Y190 yeast two-hybrid reporter strain
T3 sequence (O49686 whole entry K59R/S92I): as the sequence (O49686 whole entry K59R/S92W) above, with W92I counted along it
T3 sequence (Q9CAJ0 23-511, further chain): as the sequence (Q9CAJ0 23-511) above
Protocol: as §1

[5] = target: T4, PYR1 K59R T162W (Arabidopsis thaliana, UniProt O49686, K59R/T162W); test: Y2H Pocket Library Screen (HAB1, X-gal); assay type: cell-based
T4 construct: expressed in transfected cells; host or cells: S. cerevisiae Y190
T4 sequence (O49686 whole entry K59R/T162W): as the sequence (O49686 whole entry K59R/S92W) above, with W92S, T162W counted along it
T4 sequence (Q9CAJ0 23-511, further chain): as the sequence (Q9CAJ0 23-511) above
Protocol: as §1

[6] = target: T5, PYR1 K59R A89W (Arabidopsis thaliana, UniProt O49686, A89W/K59R); test: Y2H Pocket Library Screen (HAB1, X-gal); assay type: cell-based
T5 construct: expressed in transfected cells; host or cells: S. cerevisiae Y190 yeast two-hybrid reporter strain
T5 sequence (O49686 whole entry K59R/A89W): as the sequence (O49686 whole entry K59R/S92W) above, with A89W, W92S counted along it
T5 sequence (Q9CAJ0 23-511, further chain): as the sequence (Q9CAJ0 23-511) above
Protocol: as §1

[7] = target: T6, PYR1 K59R M158T (Arabidopsis thaliana, UniProt O49686, K59R/M158T); test: Y2H Pocket Library Screen (HAB1, X-gal); assay type: cell-based
T6 construct: expressed in transfected cells; host or cells: S. cerevisiae Y190 two-hybrid reporter strain
T6 sequence (Q9CAJ0 23-511): as above
T6 sequence (O49686 whole entry K59R/M158T): as the sequence (O49686 whole entry K59R/S92W) above, with W92S, M158T counted along it
Protocol: as §1

[8] = target: T7, PYR1 K59R M158V (Arabidopsis thaliana, UniProt O49686, K59R/M158V); test: Y2H Pocket Library Screen (HAB1, X-gal); assay type: cell-based
T7 construct: expressed in transfected cells; host or cells: S. cerevisiae Y190 two-hybrid reporter strain
T7 sequence (O49686 whole entry K59R/M158V): as the sequence (O49686 whole entry K59R/S92W) above, with W92S, M158V counted along it
T7 sequence (Q9CAJ0 23-511, further chain): as the sequence (Q9CAJ0 23-511) above
Protocol: as §1

[9] = target: T8, PYR1 K59R L87F (Arabidopsis thaliana, UniProt O49686, K59R/L87F); test: Y2H Pocket Library Screen (HAB1, X-gal); assay type: cell-based
T8 construct: expressed in transfected cells; host or cells: S. cerevisiae Y190 yeast two-hybrid reporter strain
T8 sequence (O49686 whole entry K59R/L87F): as the sequence (O49686 whole entry K59R/S92W) above, with L87F, W92S counted along it
T8 sequence (Q9CAJ0 23-511, further chain): as the sequence (Q9CAJ0 23-511) above
Protocol: as §1

[10] = target: T9, PYR1 K59R F159V (Arabidopsis thaliana, UniProt O49686, F159V/K59R); test: Y2H Pocket Library Screen (HAB1, X-gal); assay type: cell-based
T9 construct: expressed in transfected cells; host or cells: S. cerevisiae Y190
T9 sequence (O49686 whole entry K59R/F159V): as the sequence (O49686 whole entry K59R/S92W) above, with W92S, F159V counted along it
T9 sequence (Q9CAJ0 23-511, further chain): as the sequence (Q9CAJ0 23-511) above
Protocol: as §1

[11] = target: T10, PYR1 K59R A89I (Arabidopsis thaliana, UniProt O49686, A89I/K59R); test: Y2H Pocket Library Screen (HAB1, X-gal); assay type: cell-based
T10 construct: expressed in transfected cells; host or cells: S. cerevisiae Y190 yeast two-hybrid reporter strain
T10 sequence (O49686 whole entry K59R/A89I): as the sequence (O49686 whole entry K59R/S92W) above, with A89I, W92S counted along it
T10 sequence (Q9CAJ0 23-511, further chain): as the sequence (Q9CAJ0 23-511) above
Protocol: as §1

[12] = target: T11, PYR1 K59R M158C (Arabidopsis thaliana, UniProt O49686, K59R/M158C); test: Y2H Pocket Library Screen (HAB1, X-gal); assay type: cell-based
T11 construct: expressed in transfected cells; host or cells: S. cerevisiae Y190 two-hybrid reporter strain
T11 sequence (O49686 whole entry K59R/M158C): as the sequence (O49686 whole entry K59R/S92W) above, with W92S, M158C counted along it
T11 sequence (Q9CAJ0 23-511, further chain): as the sequence (Q9CAJ0 23-511) above
Protocol: as §1

[13] = target: T12, PYR1 K59R A89I S92I (Arabidopsis thaliana, UniProt O49686, A89I/K59R/S92I); test: Y2H Combinatorial Mutagenesis Screen I (HAB1, X-gal); assay type: cell-based
T12 construct: expressed in transfected cells; host or cells: S. cerevisiae Y190 two-hybrid reporter strain
T12 sequence (O49686 whole entry K59R/A89I/S92I): as the sequence (O49686 whole entry K59R/S92W) above, with A89I, W92I counted along it
T12 sequence (Q9CAJ0 23-511, further chain): as the sequence (Q9CAJ0 23-511) above
Text: (§2) This screening approach yielded mutants at ligand contacting residues that alter sensitivity to specific ligands. We reasoned that receptor sensitivity could be improved by systematically constructing combinations of the best mutant variants identified in the first round of screening. To test this, we constructed mutant combinations using the strongest mutations identified for mandipropamid, benzothiadiazole, benoxacor or fludioxonil sensitivity. The mutations selected for combinatorial mutagenesis are listed in bold type in Table 1; The mutant combinations were constructed using the QuickChange Lightning Multi Site-Directed PCR Mutagenesis kit (Agilent, USA) using pBD-PYR1^K59R template DNA and mutagenic primers, essentially as previously described (Mosquna et al., 2011). The mutant combinations were sequence validated, introduced into the pACT-HAB1 Y190 reporter strain and then tested for responsiveness to a range of compound concentrations (100, 50, 25, 10, 1, 0.2, 0.1 or 0 μM each test compound). These efforts yielded double mutant receptor variants with improved sensitivity for the 4 compound/receptor pairs examined (see entries labeled “Combinatorial Mutagenesis Screen I” in Table 1).

[14] = target: T13, PYR1 K59R A89I S92W (Arabidopsis thaliana, UniProt O49686, A89I/K59R/S92W); test: as above; assay type: cell-based
T13 construct: expressed in transfected cells; host or cells: S. cerevisiae Y190 two-hybrid reporter strain
T13 sequence (Q9CAJ0 23-511): as above
T13 sequence (O49686 whole entry K59R/A89I/S92W): as the sequence (O49686 whole entry K59R/S92W) above, with A89I counted along it
Text: as §2

T1 sequence (Q9CAJ0 23-511): as the sequence (Q9CAJ0 23-511) above
T1 sequence (O49686 whole entry Y58H/K59R/V81I/F108A/S122G/F159L): as the sequence (O49686 whole entry K59R/S92W) above, with Y58H, V81I, W92S, F108A, S122G, F159L counted along it

SMILES	activation of the receptors by ABA [1]	levels of RAB18 and RD29 induced by ABA, compared with wild type [2]	Threshold [3] [µM]	Threshold [4] [µM]	Threshold [5] [µM]	Threshold [6] [µM]	Threshold [7] [µM]	Threshold [8] [µM]	Threshold [9] [µM]	Threshold [10] [µM]	Threshold [11] [µM]	Threshold [12] [µM]	Threshold [13] [µM]	Threshold [14] [µM]
CC1=CC(=O)CC(C)(C)[C@@]1(O)/C=C/C(C)=C\C(=O)O [ABA, abscisic acid]	not appreciably activated	higher												
CC1COc2ccccc2N1C(=O)C(Cl)Cl (centres unmarked) [Benoxacor, benoxacor]			50	50	50	100	100	100	100	100	100	100	50	50
